Data as given in patent publication US12263144B2, “Methods of treating IgA nephropathy with thiol-containing molecules” (Accubit LLC—Biotechnology, priority 2020, dated 2025).

What was measured:
Format in all cases: biochemical
[1] = test system: Rat rIgA (poly-rIgA); assay: SEC determination of poly- and mono-rIgA content of rat rIgA after treatment; conditions: for disassembly of poly-rIgA into monomers (SEC): rat rIgA, reducing agents added, FIG. 3 A-C
Experimental: (§1) The overall complex size of IgA aggregates was determined either by size-exclusion chromatography (SEC: Superdex 200 Increase 10/300 by GL Cytiva), or by SDS-PAGE. For evaluating the involvement of intermolecular disulfide connectivity in IgA complexes, IgA samples were treated with either reducing agents, such as DTT, TCEP or reduced glutathione (Sigma), or interventional drugs, such as cysteamine (Sigma), WR-1065 (Sigma) and N-Acetyl-L-cysteine (VWR Chemicals) in phosphate-buffered saline (PBS) pH7.4. Before running on SEC, samples were treated with the drugs at indicated concentrations at 37° C. for one hour.
In the meantime, the SEC column was also equilibrated with PBS supplemented with the reducing agent at the same concentration. For running SEC, 100 μL of the recombinant IgA (concentration varies between 1 mg/mL and 8 mg/mL) or purified native human IgA1 (˜1 mg/mL) was loaded to the column and UV absorption was recorded following elution. […] The ratios between poly-rIgA and mono-rIgA were calculated as between the corresponding areas under the curve (AUC), and the treatment effect of the thiol agents was judged by the reduction of the poly-rIgA level with a compensatory increase of the mono-rIgA content.
To further investigate specific cysteine residue(s) involved in IgA complexes, expression vectors were constructed to produce recombinant IgA (rIgA) Fc segments of rat and human sequences (FIG. 2, part A) as discussed above. Rat IgA analogs were expressed in BL21 DE3 strain of E. coil and recombinant protein were purified from the bacterial lysate using Histrap HP columns (GE Healthcare) by running fast protein liquid chromatography (FPLC). Human recombinant IgA mimetics were produced from human embryo kidney (HEK293) cells by transfection of the expressing plasmids. Recombinant IgA proteins expressed by the cells were secreted into the culture medium, and they were subsequently purified by Histrap HP columns by FPLC using standard procedures. […] Rat rIgA was produced from bacterial expression as discussed above.
Cysteamine (Cy), an aminothiol that can react with cysteine, is both a natural metabolite produced in mammalian cells and a clinical drug used for treatment of cystinosis. In cystinosis, cysteamine reduces the disulfide bond in cystine, which is the oxidated dimer of amino acid cysteine (FIG. 4, part A). In the context of cysteine residues in proteins, endogenous cysteamine as well as the therapeutic drug forms mixed disulfides with susceptible cysteine sulfhydryl groups in a process called cysteamination (FIG. 4, part B). It was sought to determine whether cysteamine could reduce Cys471-disulfides to disaggregate poly-IgA. Rat rIgA (SEQ ID NO.4) was treated with various concentrations of cysteamine for one hour at 37° C. in phosphate buffered saline at neutral pH and the protein complexes were analyzed by SEC. The SEC column (model: Superdex 200 Increase 10/300 GL by Cytiva) was preequilibrated with the same buffer supplemented with the same concentration of cysteamine.

[2] = test system: natural IgA1 assembly (two heavy chains and two light chains connected via disulfide bonds); assay: Ex vivo study: integrity of natural IgA assembly under thiol/reducing agents
Experimental: as §1
(§2) Proteins in sample buffer (Bio-Rad Laboratories, Hercules, CA, USA) with or without TCEP (for reducing or nonreducing condition, respectively) were resolved by 4-12% SDS-PAGE (Bio-Rad Laboratories). IgA bands were subsequently visualized either by staining with GelCode Blue (Thermo Fisher Scientific), or by Western blotting on PVDF membrane. For Western blotting, 5% non-fat milk was used in blocking for one hour at room temperature. The membrane was then incubated with mouse anti-Histag antibody (Thermo Scientific), or HRP-conjugated goat anti-rat IgA α-chain antibody (Cat. ab97185, Abcam, UK), or goat anti-human IgA HRP antibody (Cat: 2050-05, SouthernBiotech) for detecting rat or human IgA (Fc), respectively. The membrane was developed using the Clarity™ ECL substrate (Bio-Rad Laboratories, CA, USA).

[3] = biological target: T1, poly-IgA complexes from IgA nephropathy patients' plasma (Homo sapiens, UniProt P01876); assay: SDS-PAGE / anti-IgA Western blotting of poly-IgA from IgA nephropathy patients' plasma with or without reducing agent; conditions: reducing condition
T1 construct: human IgA1 whole molecule was purified from pooled plasma of IgA nephropathy patients; from tissue
T1 sequence (P01876 1-353 isoform P01876-1, one chain of several): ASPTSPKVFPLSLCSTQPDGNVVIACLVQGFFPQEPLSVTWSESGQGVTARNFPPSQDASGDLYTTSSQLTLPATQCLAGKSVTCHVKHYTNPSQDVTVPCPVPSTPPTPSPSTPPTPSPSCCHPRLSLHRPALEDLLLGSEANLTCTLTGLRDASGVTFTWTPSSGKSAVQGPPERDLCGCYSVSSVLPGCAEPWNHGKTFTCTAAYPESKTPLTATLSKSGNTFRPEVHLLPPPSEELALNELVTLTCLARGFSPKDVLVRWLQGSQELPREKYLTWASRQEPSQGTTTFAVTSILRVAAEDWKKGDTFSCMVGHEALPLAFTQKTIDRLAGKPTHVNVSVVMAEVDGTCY
Source text: (§3) IgA1 from IgA nephropathy patient sera was purified by Jacalin (Thermo Scientific, USA)-directed affinity chromatography. Poly-IgA1 contents were further enriched via running Superdex 200 Increase gel filtration molecular sieve (GE Biosciences) and collecting high-molecular weight fractions from an AKTA protein purification system (GE Biosciences). Human serum from healthy donors was purchased from Sigma-Aldrich and total IgA1 was also purified by running Jacalin-directed chromatography. Purified total IgA1 was used for injecting mice.
Proteins in sample buffer (Bio-Rad Laboratories, Hercules, CA, USA) with or without TCEP (for reducing or nonreducing condition, respectively) were resolved by 4-12% SDS-PAGE (Bio-Rad Laboratories). IgA bands were subsequently visualized either by staining with GelCode Blue (Thermo Fisher Scientific), or by Western blotting on PVDF membrane. […]
In this Example, it was sought to isolate high molecular weight IgA complexes, such as poly-IgA, from plasma of IgA nephropathy patients. […] By running SDS-PAGE of the poly-IgA fraction under both reducing and nonreducing conditions, it was determined that the molecular complexes of IgA were connected through disulfide bridges (FIG. 1, part B). […] IgA1 complexes were extracted from individual patients by SEC and analyzed the contents by SDS-PAGE.

[4] = biological target: T2, human IgA1 (poly-IgA1) (Homo sapiens, UniProt P01876); assay: SEC of native human IgA1 treated ex vivo; conditions: total IgA1 from human sera, FIG. 5 E-F
T2 construct: human IgA1 whole molecule was purified from pooled plasma of IgA nephropathy patients; from tissue
T2 sequence (P01876 1-353 isoform P01876-1): as the sequence (P01876 1-353 isoform P01876-1, one chain of several) above
Source text: as §3, §1
In the meantime, the SEC column was also equilibrated with PBS supplemented with the reducing agent at the same concentration. For running SEC, 100 μL of the recombinant IgA (concentration varies between 1 mg/mL and 8 mg/mL) or purified native human IgA1 (˜1 mg/mL) was loaded to the column and UV absorption was recorded following elution. Recombinant IgA typically formed two elution peaks: a minor peak of ˜800 kDa poly-rIgA followed by a major peak of ˜170 kDa of monomeric rIgA. The ratios between poly-rIgA and mono-rIgA were calculated as between the corresponding areas under the curve (AUC), and the treatment effect of the thiol agents was judged by the reduction of the poly-rIgA level with a compensatory increase of the mono-rIgA content.
In addition, human IgA1 whole molecule was purified from pooled plasma of IgA nephropathy patients and subjected the sample to different concentrations of cysteamine (FIG. 5, part C). […]

[5] = test system: rat poly-rIgA; assay: Nonreducing SDS-PAGE analysis of rat poly-rIgA after pretreatment; conditions: cysteamine 0 to 10 mM; TCEP 10 mM; untreated poly-IgA >250 kDa
Experimental: as §2
To further ascertain the mechanism-of-action of cysteamine in targeting disulfides, nonreducing SDS-PAGE analysis was performed of rat poly-rIgA (FIG. 5, part D). The samples were pretreated with 0 to 10 mM cysteamine, or 10 mM TCEP as positive control. As expected, poly-IgA appeared as >250 kDa bands on SDS-PAGE. Dose-dependent response of poly-rIgA to cysteamine was evident, with majority of the protein running at ˜64 kDa of disaggregated monomers.

SMILES	disassembly of poly-rIgA into monomers (SEC) [1]	disruption of natural IgA assembly / normal pairing of IgA heavy chains [2]	poly-IgA level (SEC) [4]	also measured
O[C@@H](CS)[C@@H](O)CS (racemic) [DDT, 1,4-Dithiothreitol]	poly-rIgA disassembled into monomers	inadvertently dissociated normal pairing of IgA heavy chains	–	–
OCCS [2-mercaptoethanol]	–	–	–	size of IgA1 band after reduction of ~600 kDa poly-IgA1 (Western blot) ([3]; eight individual IgA nephropathy patients): ~65 kDa
CC(=O)N[C@@H](CS)C(=O)O [N-acetylcysteine, N-acetyl-L-cysteine]	–	did not cause unwanted disruption of natural IgA1 assembly	lowered poly-IgA levels in a dose-dependent manner	–
O=C(O)CCP(CCC(=O)O)CCC(=O)O [TCEP, tris(2-carboxyethyl)phosphine]	poly-rIgA disassembled into monomers	inadvertently dissociated normal pairing of IgA heavy chains	–	molecular weight of protein band after pretreatment (nonreducing SDS-PAGE) [5]: ~32 kDa; size of IgA band after reduction of ~600 kDa poly-IgA (Western blot) ([3]; pooled plasma of IgA nephropathy patients (n=10)): ~65 KDa
NCCCNCCS [WR-1065, 2-[(3-aminopropyl)amino]ethanethiol]	–	did not cause unwanted disruption of natural IgA1 assembly	reduction of poly-IgA levels	–
N[C@@H](CCC(=O)N[C@@H](CS)C(=O)NCC(=O)O)C(=O)O [glutathione]	–	–	–	effect on poly-IgA levels at comparable concentrations ([1]; compared with cysteamine, WR-1065, N-acetylcysteine): relatively modest effects on poly-IgA levels
